Measurements as given in patent US12162878B2 (HINOVA PHARMACEUTICALS INC., priority 2018, dated 2024).

Legend:
BRD3(1,2) = BRD3(1,2) (Homo sapiens (Human), UniProt Q15059); experiment: AlphaScreen binding of compounds on BRD3 (D1+D2); conditions: read-out: IC50 against BRD3(1,2)
Text: Homogeneous time-resolved fluorescence technology (HTRF) was used to determine the binding effect of compounds on BRD4 (D1+D2) and BRDT (D1) proteins, as well as AlphaScreen method was used to detect the binding effect of compounds on BRD2 (D1+D2) and BRD3 (D1+D2) proteins.
The compounds were screened in vitro, and each compound was serially diluted to 10 concentrations. Four proteins BRD4 (D1+D2), BRDT (D1), BRD2 (D1+D2) and BRD3 (D1+D2) were chosen to determine the IC50 values of compounds (see Table 1).
4. Compound treatment: The test compound was dissolved in dimethyl sulfoxide (DMSO), and the storage concentration was 10 mM.
6. AlphaScreen Detection Procedures:
1) Preparing One-Fold Concentration of Detection Buffer
One-fold concentration of detection buffer was prepared (Improved HEPES buffer)
2) Gradient Dilution of Compounds
Echo automatic sampler was used to transfer the compound to the detection plate for gradient dilution, so that the final concentration of dimethyl sulfoxide was 0.1%.
3) Preparation of Protein Solution
The protein was dissolved in one-fold concentration of detection buffer.
4) Preparation of Substrate Solution
The peptide was dissolved in one-fold concentration of detection buffer to prepare the substrate solution.
5) 5 μL protein solution was transferred to the detection plate, and one-fold concentration of detection buffer (5 μL) was placed in the negative control wells.
6) The plate was incubated for 15 min at room temperature.
7) 5 μL substrate solution was added to each well to start the reaction.
8) The plate was incubated for additional 60 min at room temperature.
9) Preparation of acceptor solution and donor solution in one-fold concentration of assay buffer Acceptor solution (15 μL) and donor solution (15 μL) were respectively added, and then incubated at room temperature for 60 min and protected against exposure to light.
10) The endpoint was read in EnSpire and Alpha mode.
The experimental data were recorded in an Excel file and equation (1) was used to get the inhibition rate. Inh%=(Max−Signal)/(Max−Min)*100 Equation (1):
The obtained data were input into GraphPad software, and equation (2) was used to obtain the IC50 value. Y=Bottom+(Top−Bottom)/(1+10^((Log IC50−X)*Hill Slope)) Formula (2): […]
Wherein, Y axis was the inhibition rate, and the X axis was the compound concentration.

BT474 cells = experiment: Inhibition of proliferation of BT474 cells (CCK-8); type: cell-based, human; conditions: for IC50: Homo sapiens, BT-474, 144 h, 6 days, CCK-8
Experimental: (§1) • BT474 cell line (Cell Bank of Chinese Academy of Sciences, TCHu143) • FBS (Gibco, Cat. No. 10099-141) • 0.01M PBS (Biosharp, Cat. No. 162262) • RIPM1640 (Hyclone, Cat. No. 308090.01) • Penicillin-Streptomycin (Hyclone, Cat. No. SV30010) • Cell counting kit-8 (Signalway Antibody, Cat. No. CP002) • DMSO (Sigma, Cat. No. D5879) • Centrifuge Tube, 15 ml (Excell Bio, Cat. No. CS015-0001) • Cell Culture Dish (Excell Bio, Cat. No. CS016-0128) • 96-well cell culture cluster (Corning, Cat. No. 3599) 3. Experimental Method
1) BT474 cells were subcultured in cell culture media, and the cells in good growth condition were seeded in a 96-well plate, 80 μL for each well, thus the number of cells per well was 1500, then the plate was cultured overnight in a 37° C., 5% CO2 cell incubator.
(§2) 2) The drug was prepared with dimethyl sulfoxide (DMSO) as a 10 mM stock solution. Prior to use, the solution was diluted 3 times with DMSO, and then diluted with a 3-fold gradient to obtain 9 concentration gradients. Then, each concentration of the compound was further diluted 200 times with the culture media (to ensure that DMSO concentration in the culture system was 0.1%), 2 repeat wells for each concentration. The diluted solution of each compound (20 μL) was added to the cell culture well (with a final concentration of 10 μM, 3.3 μM, 1.1 and shaken gently for mixing. In addition, three negative control wells containing only cells and three blank control wells containing only culture medium (20 μL DMSO diluted 200 times with culture medium being added to six wells) were included.
(§3) (1) After culturing for 6 days, 10 μL CCK-8 was added to each well and cultured for additional 2.5 h in a 37° C., 5% CO2 cell incubator.
(§4) (2) The absorbance (OD value) at 450 nm was measured with a multifunctional microplate reader.
(§5) (3) The data was analyzed by the Dose-response-inhibition equation in the software GraphPad Prism6, and the IC50 value was obtained.

Vcap cells = experiment: Inhibition of proliferation of Vcap cells (CCK-8); type: cell-based, human; conditions: for IC50: Homo sapiens, 144 h, 6 days, CCK-8
Experimental: as §1, with “Vcap” for “BT474”, “TCHu220)” for “TCHu143)”, “DMEM HIGH Glucose” for “RIPM1640”, “SH30243.01)” for “308090.01)”, “Dish,” for “Dish”, “2.” for “3.”
1) Vcap cells were subcultured in cell culture media, and the cells in good growth condition were seeded in a 96-well plate, 80 μL for each well, thus the number of cells per well was 10000, then the plate was cultured overnight in a 37° C., 5% CO2 cell incubator.
as §2, with “1.1 μM . . . ),” for “1.1”
as §3, §4, §5

Sequence of BRD3(1,2) (Q15059 29-417): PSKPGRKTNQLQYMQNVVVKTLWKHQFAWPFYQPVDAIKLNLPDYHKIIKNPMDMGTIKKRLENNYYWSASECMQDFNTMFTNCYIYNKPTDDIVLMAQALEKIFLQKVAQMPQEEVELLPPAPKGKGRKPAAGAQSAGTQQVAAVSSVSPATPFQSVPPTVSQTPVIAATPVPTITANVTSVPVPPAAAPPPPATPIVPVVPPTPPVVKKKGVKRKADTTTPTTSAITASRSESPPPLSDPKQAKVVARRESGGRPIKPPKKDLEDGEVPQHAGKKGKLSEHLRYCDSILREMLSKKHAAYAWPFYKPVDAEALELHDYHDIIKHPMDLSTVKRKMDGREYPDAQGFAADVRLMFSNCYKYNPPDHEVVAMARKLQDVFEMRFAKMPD

Row | IC50 (BRD3(1,2)) [µM] | IC50 (BT474 cells) [µM] | IC50 (Vcap cells) [µM] | Compound | inhibitory action on BT474 cells (in words) (BT474 cells) | inhibitory action on Vcap cells (in words) (Vcap cells)
1 | 0.0052 | 0.33 | – | [2H]C([2H])([2H])n1cc(-c2cc(NS(=O)(=O)CC)ccc2N2CCC3(CC2)CC3)c2cc[nH]c2c1=O [Compound 41] | – | –
2 | – | 0.13 | – | [2H]C([2H])([2H])n1cc(-c2cc(S(=O)(=O)CC)ccc2N2CCC3(CC3)C2)c2cc[nH]c2c1=O [Compound 55, 4-(5(ethylsulfonyl)-2-(5-aza-spiro[2.4]heptan-5-yl)phenyl)-6-trideuteromethyl-1H-pyrrolo[2,3-c]pyridin-7(6H)-one] | effective inhibitory action | –
3 | 0.0047 | – | 0.015 | [2H]C([2H])([2H])n1cc(-c2cc(S(C)(=O)=O)ccc2N2CCC3(CC2)CC3(F)F)c2cc[nH]c2c1=O [Compound 184, 4-(2-(1,1-difluoro-6-aza-spiro[2.5]octan-6-yl)-5-(methylsulfonyl)phenyl)-6-trideuteromethyl-1H-pyrrolo[2,3-c]pyridin-7(6H)-one] | – | effective inhibitory action
4 | 0.0067 | – | 0.0176 | [2H]C([2H])([2H])n1cc(-c2cc(S(C)(=O)=O)c(F)cc2N2CCC3(CC2)CC3(F)F)c2cc[nH]c2c1=O [Compound 219, 4-(2-(1,1-difluoro-6-aza-spiro[2.5]octan-6-yl)-4-fluoro-5-(methylsulfonyl)phenyl)-6-trideuteromethyl-1H-pyrrolo[2,3-c]pyridin-7(6H)-one] | – | effective inhibitory action
